Our source for the IC50 values is patent US20250136586A1, “Substituted 7-(Pyrimidin-4-yl)Quinolin-4(1H)-One Compounds as Cyclin Dependent Kinase Inhibitors” (BeiGene, Ltd., priority 2022, published 2025).

By IC50 is commonly meant the concentration at which inhibition is half-maximal.

For one test, the target named is CDK6/Cyclin D3 (Homo sapiens (Human), UniProt Q00534). The test can be described thus: TR-FRET kinase inhibition assay, CDK6/Cyclin D3. It is filed as biochemical. As to conditions: 1 mM ATP, 0.15 μM Rb (Ser780)-biotin substrate, read-out: CDK6D3 IC50. An outline of the steps: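 Kinase preincubated 60 min at room temperature with 0–10 μM compound; reaction started with 1 mM ATP and 0.15 μM Rb (Ser780)-biotin, run 120 min at room temperature in HEPES pH 7.0, 50 mM MgCl2. pRb detected by TR-FRET (665/620 nm ratio); IC50 from four-parameter logistic fit.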

For the next test, the target named is CDK4/Cyclin D1 (Homo sapiens (Human), UniProt P11802). The test can be described thus: TR-FRET kinase inhibition assay, CDK4/Cyclin D1. It is filed as biochemical. As to conditions: 1 mM ATP, 0.15 μM Rb (Ser780)-biotin substrate, read-out: CDK4D1 IC50. An outline of the steps: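 Kinase was preincubated with compound for 60 min at room temperature, then reacted with ATP and Rb (Ser780)-biotin substrate for 120 min. IC50 came from a four-parameter logistic fit.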
Chain of CDK4/Cyclin D1 (P11802 whole entry): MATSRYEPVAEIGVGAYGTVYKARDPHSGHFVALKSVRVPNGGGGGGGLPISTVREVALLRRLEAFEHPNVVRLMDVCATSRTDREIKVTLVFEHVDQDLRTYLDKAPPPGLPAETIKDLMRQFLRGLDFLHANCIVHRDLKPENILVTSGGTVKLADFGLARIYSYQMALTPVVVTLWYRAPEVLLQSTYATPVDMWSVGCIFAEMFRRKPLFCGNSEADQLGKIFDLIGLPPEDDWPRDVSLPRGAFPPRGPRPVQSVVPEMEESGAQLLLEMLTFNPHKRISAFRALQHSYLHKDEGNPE
Chain of CDK4/Cyclin D1 (P24385 whole entry partner): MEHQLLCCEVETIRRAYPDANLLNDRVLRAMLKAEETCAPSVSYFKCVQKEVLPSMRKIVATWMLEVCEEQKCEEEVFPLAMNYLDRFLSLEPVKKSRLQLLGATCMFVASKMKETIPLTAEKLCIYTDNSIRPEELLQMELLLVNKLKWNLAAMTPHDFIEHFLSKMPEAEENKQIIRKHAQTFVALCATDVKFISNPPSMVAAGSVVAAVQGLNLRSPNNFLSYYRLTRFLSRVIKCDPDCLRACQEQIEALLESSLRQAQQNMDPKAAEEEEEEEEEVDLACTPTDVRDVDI

Chain of CDK6/Cyclin D3 (Q00534 whole entry): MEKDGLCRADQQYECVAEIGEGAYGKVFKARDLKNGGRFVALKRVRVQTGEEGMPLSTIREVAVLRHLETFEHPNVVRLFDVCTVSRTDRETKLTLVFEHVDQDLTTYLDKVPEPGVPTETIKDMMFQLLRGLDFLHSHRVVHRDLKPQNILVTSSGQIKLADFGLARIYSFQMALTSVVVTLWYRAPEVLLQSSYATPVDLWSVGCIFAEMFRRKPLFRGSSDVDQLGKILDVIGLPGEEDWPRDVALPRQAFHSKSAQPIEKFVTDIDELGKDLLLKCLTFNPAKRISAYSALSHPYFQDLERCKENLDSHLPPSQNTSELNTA
Chain of CDK6/Cyclin D3 (P30281 whole entry partner): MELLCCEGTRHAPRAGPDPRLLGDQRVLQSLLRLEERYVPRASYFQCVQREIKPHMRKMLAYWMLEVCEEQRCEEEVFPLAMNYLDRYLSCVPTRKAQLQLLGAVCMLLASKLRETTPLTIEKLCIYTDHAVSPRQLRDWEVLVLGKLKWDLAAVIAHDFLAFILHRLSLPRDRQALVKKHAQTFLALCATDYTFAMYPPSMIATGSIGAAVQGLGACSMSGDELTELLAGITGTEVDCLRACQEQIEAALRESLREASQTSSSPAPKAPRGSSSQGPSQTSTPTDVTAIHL

Consider `CC(C)n1c(CN2CC[C@@H](F)C2)cc(=O)c2cc(F)c(-c3nc(N[C@@H]4CCOC[C@H]4O)ncc3F)cc21` [Example 114, 6-fluoro-7-(5-fluoro-2-(((3S,4R)-3-hydroxytetrahydro-2H-pyran-4-yl)amino)pyrimidin-4-yl)-2-(((R)-3-fluoropyrrolidin-1-yl)methyl)-1-isopropylquinolin-4(1H)-one], for which the IC50 on CDK6/Cyclin D3 stood at 640 nM; on CDK4/Cyclin D1, 40 nM.

On to `CC(C)n1c(CN2CC(O)C2)cc(=O)c2ccc(-c3nc(N[C@@H]4CCOC[C@H]4O)ncc3F)cc21` [Example 30, 7-(5-fluoro-2-(((3S,4R)-3-hydroxytetrahydro-2H-pyran-4-yl)amino)pyrimidin-4-yl)-2-((3-hydroxyazetidin-1-yl)methyl)-1-isopropylquinolin-4(1H)-one], for which the IC50 at CDK6/Cyclin D3 turned out to be 780 nM; at CDK4/Cyclin D1, 30 nM.

For the compound `Cc1cc(=O)c2ccc(-c3nc(N[C@@H]4CCOC[C@H]4O)ncc3Cl)cc2n1C(C)C` [Example 11, 7-(5-chloro-2-(((3S,4R)-3-hydroxytetrahydro-2H-pyran-4-yl)amino)pyrimidin-4-yl)-1-isopropyl-2-methylquinolin-4(1H)-one], the values for the half-inhibitory concentration (IC50) at CDK6/Cyclin D3 and on CDK4/Cyclin D1 were 420 nM and 28 nM, respectively.

As to `CC(C)n1c(CN2CC[C@H](F)[C@@H](O)C2)cc(=O)c2ccc(-c3nc(N[C@@H]4CCOC[C@H]4O)ncc3F)cc21` [Example 85, 7-(5-fluoro-2-(((3S,4R)-3-hydroxytetrahydro-2H-pyran-4-yl)amino)pyrimidin-4-yl)-2-(((3S,4S)-4-fluoro-3-hydroxypiperidin-1-yl)methyl)-1-isopropylquinolin-4(1H)-one], the IC50 on CDK6/Cyclin D3 turned out to be 494 nM; at CDK4/Cyclin D1, 19 nM.

Turning to `CC(C)n1c(CN2CCC3(CCCO3)CC2)cc(=O)c2ccc(-c3nc(N[C@@H]4CCOC[C@H]4O)ncc3F)cc21` [Example 44, 2-((1-oxa-8-azaspiro[4.5]decan-8-yl)methyl)-7-(5-fluoro-2-(((3S,4R)-3-hydroxytetrahydro-2H-pyran-4-yl)amino)pyrimidin-4-yl)-1-isopropylquinolin-4(1H)-one], the IC50 at CDK6/Cyclin D3 amounted to 1280 nM; at CDK4/Cyclin D1 it was 29 nM.

For `CC(=O)NCc1cc(=O)c2ccc(-c3nc(N[C@@H]4CCOC[C@H]4O)ncc3F)cc2n1C(C)C` [Example 50, N-((7-(5-fluoro-2-(((3S,4R)-3-hydroxytetrahydro-2H-pyran-4-yl)amino)pyrimidin-4-yl)-1-isopropyl-4-oxo-1,4-dihydroquinolin-2-yl)methyl)acetamide], the IC50 on CDK6/Cyclin D3 turned out to be 688 nM; on CDK4/Cyclin D1, 16 nM.

On to `Cc1c(C2CCN2C)n(C(C)C)c2cc(-c3nc(N[C@@H]4CCOC[C@H]4O)ncc3F)ccc2c1=O` (stereo partly drawn) [Example 387, 7-(5-fluoro-2-(((3S,4R)-3-hydroxytetrahydro-2H-pyran-4-yl)amino)pyrimidin-4-yl)-1-isopropyl-3-methyl-2-(1-methylazetidin-2-yl)quinolin-4(1H)-one], for which the IC50 on CDK6/Cyclin D3 worked out at 237 nM; on CDK4/Cyclin D1, 5.1 nM.

Consider `CC(C)n1c(CN2CCOC[C@@H]2C)cc(=O)c2ccc(-c3nc(N[C@@H]4CCOC[C@H]4O)ncc3F)cc21` [Example 53, 7-(5-fluoro-2-(((3S,4R)-3-hydroxytetrahydro-2H-pyran-4-yl)amino)pyrimidin-4-yl)-1-isopropyl-2-(((S)-3-methylmorpholino)methyl)quinolin-4(1H)-one], for which the results for the IC50 at CDK6/Cyclin D3 and on CDK4/Cyclin D1 were 165 nM and 11 nM, respectively.

Consider `CC(C)n1c(CN2C3CCCC2CC(O)C3)cc(=O)c2ccc(-c3nc(N[C@@H]4CCOC[C@H]4O)ncc3F)cc21` (stereo partly drawn) [Example 90, 7-(5-fluoro-2-(((3S,4R)-3-hydroxytetrahydro-2H-pyran-4-yl)amino)pyrimidin-4-yl)-2-(((1R,3R,5S)-3-hydroxy-9-azabicyclo[3.3.1]nonan-9-yl)methyl)-1-isopropylquinolin-4(1H)-one], for which the IC50 at CDK6/Cyclin D3 worked out at 251 nM; at CDK4/Cyclin D1, 5.7 nM.

Turning to `CC(C)n1c(CN2CC[C@@H](O)C2)cc(=O)c2ccc(-c3nc(N[C@@H]4CCOC[C@H]4O)ncc3F)cc21` [Example 87, 7-(5-fluoro-2-(((3S,4R)-3-hydroxytetrahydro-2H-pyran-4-yl)amino)pyrimidin-4-yl)-2-(((R)-3-hydroxypyrrolidin-1-yl)methyl)-1-isopropylquinolin-4(1H)-one], the IC50 is 682 nM on CDK6/Cyclin D3 and 22 nM on CDK4/Cyclin D1.

With `Cc1c(CN2CC[C@@H](F)C2)n(C(C)C)c2cc(-c3nc(N[C@@H]4CCOC[C@H]4O)ncc3F)ccc2c1=O` [Example 92, 7-(5-fluoro-2-(((3S,4R)-3-hydroxytetrahydro-2H-pyran-4-yl)amino)pyrimidin-4-yl)-2-(((R)-3-fluoropyrrolidin-1-yl)methyl)-1-isopropyl-3-methylquinolin-4(1H)-one], the IC50 stood at 131 nM at CDK6/Cyclin D3 and 4.1 nM at CDK4/Cyclin D1.

Take `CC(C)n1cc(Cl)c(=O)c2ccc(-c3nc(N[C@@H]4CCOC[C@H]4O)ncc3F)cc21` [Example 12, 3-chloro-7-(5-fluoro-2-(((3S,4R)-3-hydroxytetrahydro-2H-pyran-4-yl)amino)pyrimidin-4-yl)-1-isopropylquinolin-4(1H)-one]: the results for the IC50 at CDK6/Cyclin D3 and at CDK4/Cyclin D1 were 1930 nM and 258 nM, respectively.

On to `CC(C)n1c(CN)cc(=O)c2ccc(-c3nc(N[C@@H]4CCOC[C@H]4O)ncc3F)cc21` [Example 35], for which the IC50 at CDK6/Cyclin D3 turned out to be 276 nM; at CDK4/Cyclin D1, 6.9 nM.

As to `CC(C)n1ccc(=O)c2ccc(-c3nc(N[C@@H]4CCOC[C@H]4O)ncc3F)cc21` [Example 3, 7-(5-fluoro-2-(((3S,4R)-3-hydroxytetrahydro-2H-pyran-4-yl)amino)pyrimidin-4-yl)-1-isopropylquinolin-4(1H)-one], the IC50 at CDK6/Cyclin D3 was 1250 nM; on CDK4/Cyclin D1 it was 78 nM.

In the case of `Cc1c(CN2CCCC(F)(F)C2)n(C(C)C)c2cc(-c3nc(N[C@@H]4CCOC[C@H]4O)ncc3F)ccc2c1=O` [Example 116, 2-((3,3-difluoropiperidin-1-yl)methyl)-7-(5-fluoro-2-(((3S,4R)-3-hydroxytetrahydro-2H-pyran-4-yl)amino)pyrimidin-4-yl)-1-isopropyl-3-methylquinolin-4(1H)-one], the IC50 at CDK6/Cyclin D3 is 176 nM; on CDK4/Cyclin D1, 3.9 nM.

`Cc1c(CN2[C@@H](C)COC[C@@H]2C)n(C(C)C)c2cc(-c3nc(N[C@@H]4CCOC[C@H]4O)ncc3F)ccc2c1=O` [Example 118, 2-(((3S,5S)-3,5-dimethylmorpholino)methyl)-7-(5-fluoro-2-(((3S,4R)-3-hydroxytetrahydro-2H-pyran-4-yl)amino)pyrimidin-4-yl)-1-isopropyl-3-methylquinolin-4(1H)-one]: the IC50 at CDK6/Cyclin D3 worked out at 51.7 nM; at CDK4/Cyclin D1, 1.1 nM.

As for `Cc1c(CN)n(C(C)C)c2cc(-c3nc(N[C@@H]4CCOC[C@H]4O)ncc3F)ccc2c1=O` [Example 120, 2-(aminomethyl)-7-(5-fluoro-2-(((3S,4R)-3-hydroxytetrahydro-2H-pyran-4-yl)amino)pyrimidin-4-yl)-1-isopropyl-3-methylquinolin-4(1H)-one], the figures for the concentration for half-maximal inhibition (IC50) at CDK6/Cyclin D3 and on CDK4/Cyclin D1 were 265 nM and 5.9 nM, respectively.

Consider `CC(C)n1c(CN2C3CCC2COC3)cc(=O)c2ccc(-c3nc(N[C@@H]4CCOC[C@H]4O)ncc3F)cc21` [Example 29, 2-((3-oxa-8-azabicyclo[3.2.1]octan-8-yl)methyl)-7-(5-fluoro-2-(((3S,4R)-3-hydroxytetrahydro-2H-pyran-4-yl)amino)pyrimidin-4-yl)-1-isopropylquinolin-4(1H)-one], for which the IC50 was 361 nM at CDK6/Cyclin D3 and 19 nM on CDK4/Cyclin D1.

Take `CNC(=O)c1c(C)c(=O)c2ccc(-c3nc(N[C@@H]4CCOC[C@H]4O)ncc3F)cc2n1C(C)C` [Example 24, 7-(5-fluoro-2-(((3S,4R)-3-hydroxytetrahydro-2H-pyran-4-yl)amino)pyrimidin-4-yl)-1-isopropyl-N,3-dimethyl-4-oxo-1,4-dihydroquinoline-2-carboxamide]: the results for the IC50 at CDK6/Cyclin D3 and at CDK4/Cyclin D1 were 432 nM and 24 nM, respectively.

In the case of `Cc1c(C2CCN2)n(C(C)C)c2cc(-c3nc(N[C@@H]4CCOC[C@H]4O)ncc3F)ccc2c1=O` (stereo partly drawn) [Example 386, 2-(azetidin-2-yl)-7-(5-fluoro-2-(((3S,4R)-3-hydroxytetrahydro-2H-pyran-4-yl)amino)pyrimidin-4-yl)-1-isopropyl-3-methylquinolin-4(1H)-one], the IC50 on CDK6/Cyclin D3 was 375 nM; on CDK4/Cyclin D1 it was 12 nM.

With `COc1ccc(NCc2cc(=O)c3ccc(-c4nc(N[C@@H]5CCOC[C@H]5O)ncc4F)cc3n2C(C)C)cc1` [Example 101, 7-(5-fluoro-2-(((3S,4R)-3-hydroxytetrahydro-2H-pyran-4-yl)amino)pyrimidin-4-yl)-1-isopropyl-2-(((4-methoxyphenyl)amino)methyl)quinolin-4(1H)-one], the IC50 at CDK6/Cyclin D3 was 312 nM; at CDK4/Cyclin D1 it was 26 nM.

With `CC(C)n1c(CN2CCCOCC2)cc(=O)c2ccc(-c3nc(N[C@@H]4CCOC[C@H]4O)ncc3F)cc21` [Example 79, 2-((1,4-oxazepan-4-yl)methyl)-7-(5-fluoro-2-(((3S,4R)-3-hydroxytetrahydro-2H-pyran-4-yl)amino)pyrimidin-4-yl)-1-isopropylquinolin-4(1H)-one], the results for the IC50 on CDK6/Cyclin D3 and at CDK4/Cyclin D1 were 850 nM and 34 nM, respectively.

Turning to `CC(C)n1c(CN2CCC[C@@H](C#N)C2)cc(=O)c2ccc(-c3nc(N[C@@H]4CCOC[C@H]4O)ncc3F)cc21` [Example 88, (R)-1-((7-(5-fluoro-2-(((3S,4R)-3-hydroxytetrahydro-2H-pyran-4-yl)amino)pyrimidin-4-yl)-1-isopropyl-4-oxo-1,4-dihydroquinolin-2-yl)methyl)piperidine-3-carbonitrile], the IC50 on CDK6/Cyclin D3 came to 406 nM; on CDK4/Cyclin D1 it was 4.1 nM.
